Laboratory results taken from ChEMBL document CHEMBL1614632, “Trend analysis of a database of intravenous pharmacokinetic parameters in humans for 670 drug compounds” (Drug Metab Dispos, 2008).

Tests used:
[1] = clinical; conditions: human, in vivo, iv, Vdss
[2] = clinical; conditions: human, in vivo, iv, CL
[3] = clinical; conditions: human, in vivo, iv
[4] = clinical; conditions: human, in vivo, iv, t1/2

Row | SMILES | Vd [1] | clearance [2] | MRT [3] | half-life [4]
1 | CN(Cc1cnc2nc(N)nc(N)c2n1)c1ccc(C(=O)N[C@@H](CCC(=O)O)C(=O)O)cc1 [METHOTREXATE] | 0.43 L/kg | 2.1 mL/min/kg | 3.4 h | –
2 | CCO[C@@H](Cc1ccc(OCCc2ccc(OS(C)(=O)=O)cc2)cc1)C(=O)O [TESAGLITAZAR] | 0.13 L/kg | 0.039 mL/min/kg | 56 h | 45 h
3 | CC(C)NCC(O)COc1cccc2ccccc12 (stereo not given) [PROPRANOLOL] | 3.1 L/kg | 12 mL/min/kg | 4.3 h | 3.4 h
4 | C[C@@H]1CC2=CC(=O)CC[C@]2(C)[C@H]2CC[C@@]3(C)[C@@H](CC[C@@H]3O)[C@]12C | 0.8 L/kg | 20 mL/min/kg | 0.67 h | 0.65 h
5 | Cc1nnc(SCC2=C(C(=O)O)N3C(=O)[C@@H](NC(=O)[C@H](O)c4ccccc4)[C@H]3SC2)s1 | 0.13 L/kg | 2.6 mL/min/kg | 0.83 h | 1 h
6 | CNC(=C[N+](=O)[O-])NCCSCc1csc(CN(C)C)n1 [NIZATIDINE] | 1 L/kg | 9.8 mL/min/kg | 1.7 h | 1.5 h
7 | CCC1=C(C)CN(C(=O)NCCc2ccc(S(=O)(=O)NC(=O)N[C@H]3CC[C@H](C)CC3)cc2)C1=O [GLIMEPIRIDE] | 0.19 L/kg | 0.5 mL/min/kg | – | 9.95 h
8 | O=C(O)Cc1ccccc1Nc1c(Cl)cccc1Cl [DICLOFENAC] | 0.22 L/kg | 3.5 mL/min/kg | 1 h | 1.4 h
9 | CCCC1O[C@@H]2C[C@H]3[C@@H]4CCC5=CC(=O)C=C[C@]5(C)[C@H]4[C@@H](O)C[C@]3(C)[C@]2(C(=O)CO)O1 (stereo not given in full) [BUDESONIDE] | 3.9 L/kg | 20 mL/min/kg | 3.2 h | 2.8 h
10 | CN(CCOc1ccc(CC2SC(=O)NC2=O)cc1)c1ccccn1 (stereo not given) [ROSIGLITAZONE] | – | 0.65 mL/min/kg | – | 3.9 h
11 | COc1ccc(C(CN(C)C)C2(O)CCCCC2)cc1 (stereo not given) [VENLAFAXINE] | – | 14 mL/min/kg | 5.2 h | 5 h
12 | CCCC(CCC)C(=O)O [VALPROIC ACID] | 0.14 L/kg | 0.16 mL/min/kg | – | 12 h
13 | COC(=O)O[C@@]12CO[C@@H]1C[C@H](O)[C@@]1(C)C(=O)[C@H](OC(C)=O)C3=C(C)[C@@H](OC(=O)[C@H](O)[C@@H](NC(=O)c4ccccc4)c4ccccc4)C[C@@](O)([C@@H](OC(=O)c4ccccc4)[C@H]21)C3(C)C [BMS-188797] | 6.9 L/kg | 8.6 mL/min/kg | 13 h | –
14 | CN(C)CCCC1(c2ccc(F)cc2)OCc2cc(C#N)ccc21 (stereo not given) [CITALOPRAM] | – | 4.3 mL/min/kg | 47 h | 33 h
15 | NC12CC3CC(CC(C3)C1)C2 [AMANTADINE] | – | 4.8 mL/min/kg | 23 h | 16 h
16 | NC[C@@H]1CC[C@@H](N)[C@@H](O[C@H]2[C@H](O)[C@@H](O[C@H]3O[C@H](CO)[C@@H](O)[C@H](N)[C@H]3O)[C@H](N)C[C@@H]2N)O1 [DIBEKACIN] | – | 0.8 mL/min/kg | 2.7 h | –
17 | CN(C)CCCN1c2ccccc2CCc2ccc(Cl)cc21 [CLOMIPRAMINE] | 13 L/kg | 8.2 mL/min/kg | 26 h | –
18 | O=C1Nc2ccc(Cl)cc2C(c2ccccc2Cl)=NC1O (stereo not given) [LORAZEPAM] | – | 1 mL/min/kg | 22 h | 17 h
19 | CCC(C)n1ncn(-c2ccc(N3CCN(c4ccc(OCC5COC(Cn6cncn6)(c6ccc(Cl)cc6Cl)O5)cc4)CC3)cc2)c1=O (stereo not given) [ITRACONAZOLE] | 7.4 L/kg | 5.1 mL/min/kg | – | 25 h
20 | CN(C)CCC(c1ccc(Cl)cc1)c1ccccn1 (stereo not given) [CHLORPHENIRAMINE] | 3.3 L/kg | 2.5 mL/min/kg | 22 h | –
21 | C/C=C1\NC(=O)[C@H]2CSSCC/C=C/[C@H](CC(=O)N[C@H](C(C)C)C(=O)N2)OC(=O)[C@H](C(C)C)NC1=O [ROMIDEPSIN] | – | 7.4 mL/min/kg | 2.6 h | 11 h
22 | Cc1ncc2n1-c1ccc(Cl)cc1C(c1ccccc1F)=NC2 [MIDAZOLAM] | – | 5.3 mL/min/kg | 3.5 h | 3.1 h
23 | CNCC[C@@H](Oc1ccccc1C)c1ccccc1 [ATOMOXETINE] | – | 9.3 mL/min/kg | 1.5 h | 5.2 h

Row | SMILES | Vd [1] | clearance [2] | MRT [3] | half-life [4]
24 | O=c1[nH]cnc2c1ncn2[C@H]1CC[C@@H](CO)O1 [DIDANOSINE] | – | 11 mL/min/kg | 1.2 h | 1.4 h
25 | CC(CCc1ccccc1)NCC(O)c1ccc(O)c(C(N)=O)c1 (stereo not given) [LABETALOL] | – | 23 mL/min/kg | – | 4.4 h
26 | O=C(N[C@H](CO)[C@H](O)c1ccc([N+](=O)[O-])cc1)C(Cl)Cl [CHLORAMPHENICOL] | – | 2.4 mL/min/kg | 6.5 h | 4.6 h
27 | CC[C@H]1OC(=O)[C@H](C)[C@@H](O[C@H]2C[C@@](C)(OC)[C@@H](O)[C@H](C)O2)[C@H](C)[C@@H](O[C@@H]2O[C@H](C)C[C@H](N(C)C)[C@H]2O)[C@](C)(O)C[C@@H](C)CN(C)[C@H](C)[C@@H](O)[C@]1(C)O [AZITHROMYCIN] | – | 10 mL/min/kg | 57 h | 69 h
28 | CCOC(=O)c1ncn2c1CN(C)C(=O)c1cc(F)ccc1-2 [FLUMAZENIL] | – | 16 mL/min/kg | 1 h | 0.78 h
29 | CC(C)NCC(O)COc1ccc(COCCOC(C)C)cc1 (stereo not given) [BISOPROLOL] | 2.4 L/kg | 3.7 mL/min/kg | – | 10 h
30 | C[C@]12CC[C@@H]3c4ccc(O)cc4CC[C@H]3[C@@H]1CC[C@@H]2O [ESTRADIOL] | – | 30 mL/min/kg | 0.7 h | 1.7 h
31 | CC[C@H](C)C(=O)O[C@H]1C[C@H](O)C=C2C=C[C@H](C)[C@H](CC[C@@H](O)C[C@@H](O)CC(=O)O)[C@H]21 [PRAVASTATIN] | 0.46 L/kg | 14 mL/min/kg | – | 0.78 h
32 | CN(C)[C@@H]1C(O)=C(C(N)=O)C(=O)[C@@]2(O)C(O)=C3C(=O)c4c(O)cccc4[C@@](C)(O)[C@H]3C[C@@H]12 [TETRACYCLINE] | – | 1.5 mL/min/kg | 12 h | –
33 | C[C@H](CCc1ccccc1)NC[C@H](O)c1ccc(O)c(C(N)=O)c1 [DILEVALOL] | – | 29 mL/min/kg | 2.8 h | 3.3 h
34 | CCc1nn(CCCN2CCN(c3cccc(Cl)c3)CC2)c(=O)n1CCOc1ccccc1 [NEFAZODONE] | – | 7.5 mL/min/kg | 1.1 h | 1.2 h
35 | C[C@@H](O)[C@H]1C(=O)N2C(C(=O)O)=C(SCCN=CN)C[C@H]12 [IMIPENEM ANHYDROUS] | – | 3 mL/min/kg | 1.3 h | 0.95 h
36 | CO[C@H]1/C=C/O[C@@]2(C)Oc3c(C)c(O)c4c(O)c(c(/C=N/N5CCN(C)CC5)c(O)c4c3C2=O)NC(=O)/C(C)=C\C=C\[C@H](C)[C@H](O)[C@@H](C)[C@@H](O)[C@@H](C)[C@H](OC(C)=O)[C@@H]1C [RIFAMPIN] | 0.97 L/kg | 3.5 mL/min/kg | 4.6 h | –
37 | C=CC1=C(C(=O)O)N2C(=O)[C@@H](NC(=O)/C(=N\OCC(=O)O)c3csc(N)n3)[C@H]2SC1 [CEFIXIME] | 0.24 L/kg | 1 mL/min/kg | – | 3.2 h
38 | CN1CCN2c3ncccc3Cc3ccccc3C2C1 (stereo not given) [MIRTAZAPINE] | 4.2 L/kg | 8 mL/min/kg | 8.8 h | –
39 | CN1C(C(=O)Nc2ccccn2)=C(O)c2sccc2S1(=O)=O [TENOXICAM] | – | 0.03 mL/min/kg | 92 h | 67 h
40 | O=C(O)P(=O)(O)O [FOSCARNET] | 0.5 L/kg | 2.1 mL/min/kg | – | 4.7 h
41 | CN1CCC[C@H]1c1cccnc1 [NICOTINE] | – | 18 mL/min/kg | 2.4 h | 2 h
42 | O=c1[nH]c2ccccc2n1CCCN1CCC(n2c(=O)[nH]c3cc(Cl)ccc32)CC1 [DOMPERIDONE] | 3.4 L/kg | 9.5 mL/min/kg | 6 h | –
43 | CCN(CC)C(=O)/C(C#N)=C/c1cc(O)c(O)c([N+](=O)[O-])c1 [ENTACAPONE] | 0.27 L/kg | 12 mL/min/kg | 0.38 h | –
44 | NCC1(CC(=O)O)CCCCC1 [GABAPENTIN] | 0.71 L/kg | 1.7 mL/min/kg | 7 h | –
45 | COc1cc2nc(N3CCN(C(=O)C4CCCO4)CC3)nc(N)c2cc1OC (stereo not given) [TERAZOSIN] | – | 1.1 mL/min/kg | – | 9 h
46 | C=CCc1ccccc1OCC(O)CNC(C)C (stereo not given) [ALPRENOLOL] | – | 15 mL/min/kg | 3.6 h | 2.5 h
